According to patent US20250188043A1 (ReproNovo SA, priority 2023, published 2025):

Columns and labels:
Assay type in all cases: physicochemical
[1] = Intrinsic dissolution rate; settings: for Intrinsic DR value: 37° C., 50 rpm, 720 min
Method: The intrinsic dissolution rate is very low for Form A of leflutrozole, even in the presence of sodium dodecyl sulfate (SDS). The rate was determined in 0.1 N hydrochloric acid (HCl) and 0.001 N HCl.

[2] = Stability program: degradation product formation and appearance; settings: for DSC onset after stress / DSC ΔH after stress: Bulk (DSC)
Excerpt: The mixtures of excipients used for this study are as follows: mixture 1 (maltodextrin, microcrystalline cellulose, sodium carboxymethylcellulose, Aerosil 200, Cutina HR; 64:29:5:0.5:1.5 ratio), mixture 2 (microcrystalline cellulose, spray dried lactose, sodium carboxylmethyl starch, Aerosil 200, magnesium stearate; 20:73.5:5:0.5:1 ratio), and mixture 3 (microcrystalline cellulose, mannitol, crospovidone, magnesium stearate; 15:79.5:4:1.5 ratio). The buffered solutions are aqueous.

[3] = Effect of oxygen (high oxygen content air or N2); settings: high oxygen content air or inert atmosphere (N2)
Excerpt: Oxidative degradation of leflutrozole is the primary pathway by which leflutrozole degrades outside of the synthesis process. Defluorination and oxidation that coincides with removal of the […] moiety yields the compound of Formula IV.

[4] = Chemical stability stress test: bulk solid and suspensions in buffer; settings: for Leflutrozole Peak Area, After: 1 week; for degradation: all suspensions tested
Method: The stress test conditions were bulk crystalline solid at room temperature (RT, about 25° C.) and 80° C. for one week or storage in buffer solutions of different pH (1, 4, and 7.4) at RT or at 80° C. for one week. Additional experiments were performed at 50° C. if degradation by more than 5% was observed during the analogous 80° C. experiment.

[5] = 2% (or 5%) solution or suspension, 1 day, room temperature, HPMC Cellulose 4000 0.5%
[6] = Solid-state, 1 week, 50° C., 75% RH, 1% in mixture 1
[7] = Solid-state, 1 week, 50° C., 75% RH, 1% in mixture 2
[8] = Solid-state, 1 week, 50° C., 75% RH, 1% in mixture 3
[9] = Solid-state, 1 week, 50° C., tight container, 1% in mixture 1
[10] = Solid-state, 1 week, 50° C., tight container, 1% in mixture 2
[11] = Solid-state, 1 week, 50° C., tight container, 1% in mixture 3
[12] = Solid-state, 1 week, 80° C., 75% RH
[13] = Solid-state, 1 week, 80° C., 75% RH, Bulk (HPLC)
[14] = Solid-state, 1 week, 80° C., tight container
[15] = Solid-state, 1 week, 80° C., tight container, Bulk (HPLC)
[16] = Xenon light (approx. 1200 kLuxh)
[17] = Xenon light (approx. 1200 kLuxh), Bulk (HPLC)

## N#Cc1ccc(C(F)(c2ccc(C#N)cc2)n2cncn2)cc1 [Form A leflutrozole, 4-[(4-cyanophenyl)-fluoro-(1,2,4-triazol-1-yl)methyl]benzonitrile]
[1]; HCl 0.001N + 1% SDS
  Intrinsic DR value: 0.0167 mg/min/cm^2
[1]; HCl 0.1N + 1% SDS
  Intrinsic DR value: 0.0162 mg/min/cm^2
[1]; even in the presence of sodium dodecyl sulfate
  intrinsic dissolution rate (in words): very low
[2]; 0.1% solution or suspension, 1 week, 80° C., Ethanol
  CL (appearance, color): No change
[2]; 0.1% solution or suspension, 1 week, 80° C., Methanol
  CL (appearance, color): No change
[2]; 0.1% solution or suspension, 1 week, 80° C., Water
  CL (appearance, color): No change, suspension formed
[2]; 0.1% solution or suspension, 1 week, 80° C., pH 1
  CL (appearance, color): No change, suspension formed
[2]; 0.1% solution or suspension, 1 week, 80° C., pH 3
  CL (appearance, color): No change, suspension formed
[2]; 1 week at 80° C. and 75% relative humidity
  form change on storage: no detectable form change
[2]; 2% (or 5%) solution or suspension, 1 day, room temperature, 0.5% CMC
  CL (appearance, color): suspension formed
[2]; [5]
  CL (appearance, color): suspension formed
  DP (degradation product): 0.0%
[2]; [6]
  CL (appearance, color): No change
  DP (degradation product): 0.5%
[2]; [7]
  CL (appearance, color): No change
  DP (degradation product): 0.1%
[2]; [8]
  CL (appearance, color): No change
  DP (degradation product): 0.4%
[2]; [9]
  CL (appearance, color): No change
  DP (degradation product): 0.0%
[2]; [10]
  CL (appearance, color): No change
  DP (degradation product): 0.0%
[2]; [11]
  CL (appearance, color): No change
  DP (degradation product): 0.1%
[2]; [12]
  DSC onset after stress: 168 °C onset;
  DSC ΔH after stress: ΔH = 110.3 J/g
[2]; [13]
  CL (appearance, color): No change
  DP (degradation product): 0.0%
[2]; [14]
  DSC onset after stress: 168 °C onset;
  DSC ΔH after stress: ΔH = 114 J/g
[2]; [15]
  CL (appearance, color): No change
  DP (degradation product): 0.0%
[2]; [16]
  DSC onset after stress: 169 °C onset;
  DSC ΔH after stress: ΔH = 112.6 J/g
[2]; [17]
  CL (appearance, color): No change
  DP (degradation product): 0.0%
[2]; xenon lamp
  degradation on exposure to xenon lamp (in words): does not degrade
[3]
  degradation on exposure to air (in words): does not degrade readily when exposed to air
[4]; Bulk Solid, RT
  Leflutrozole Peak Area, After: 99.6% peak area
[4]; Bulk solid, 80° C., listed as Form A of leflutrozole
  Leflutrozole Peak Area, After: 99.7 % peak area
[4]; Bulk solid, 80° C., listed as crystalline Form A leflutrozole
  Leflutrozole Peak Area, After: 99.7% peak area
[4]; Suspension in buffer, pH 1, 50° C.
  Leflutrozole Peak Area, After: 79.8% peak area
[4]; Suspension in buffer, pH 1, 80° C.
  Leflutrozole Peak Area, After: 18.5% peak area
[4]; Suspension in buffer, pH 4, 50° C.
  Leflutrozole Peak Area, After: 94.3% peak area
[4]; Suspension in buffer, pH 4, 80° C.
  Leflutrozole Peak Area, After: 0.6% peak area
[4]; Suspension in buffer, pH 7.4, 50° C.
  Leflutrozole Peak Area, After: 95.5% peak area
[4]; Suspension in buffer, pH 7.4, 80° C.
  Leflutrozole Peak Area, After: 1.1% peak area
[4]; 1 week at 50° C.
  degradation: > 4%
[4]; 80° C. for 1 week, irrespective of buffer pH
  degradation: > 80%
[4]; before stress test
  Leflutrozole Peak Area, Before: 99.7% peak area
[4]; sample stored at pH 7.4 and 80° C., LC-MS
  major decomposition product: compound of Formula (IV)
